Experiments:
[1] = Crystal Growth Inhibition Test; conditions: for Lag Time: pH 7.4
Description: The test is conducted as follows:
50 ml of a 0.01 M KH2 PO4 stock solution is diluted with 1000 ml N2 purged distilled water. 1 ml of an aqueous solution of the polyphosphonate to be tested (at a concentration to provide the desired ultimate concentration in the reaction mixture) is added to the diluted KH2 PO4 solution and the solution is adjusted to pH 7.4 with potassium hydroxide. To this solution is added 50 ml of a 0.0175 N CaCl2 solution preadjusted to pH 7.4. The KOH consumption is recorded as a function of time. The rate of KOH consumption is directly related to the rate of calcium phosphate formation. In the absence of polyphosphonate the formation of calcium phosphate starts at t=o, i.e. when the solutions of KH2 PO4 and CalCl2 are mixed. Low levels of polyphosphonates are capable of inhibiting the formation of calcium phosphate for 20 minutes or longer. This effect depends on the propensity of the polyphosphonates to adsorb on calcium phosphate crystal nuclei.
1-Methyl, 2-(2,2-ethane diphosphonic acid) o-carborane (MECB) was subjected to the Crystal Growth Inhibition Test.

[2] = Water solubility (remark in synthesis); format: physicochemical
Description: 1,2-Diphosphono-o-carborane was prepared as follows: To a solution of 5 g o-carborane in dry THF was added dropwise 46.7 ml of a 1.5 N solution of n-butyllithium at 0° C. To the mixture was then quickly added 11 g diethyl chlorophosphite. The solution was refluxed for several hours. The THF was evaporated. The resulting residue contained unreacted o-carborane and 1,2-di(diethyl phosphite) o-carborane. The latter was hydrolized to the corresponding acid in 500 ml 6 N HCl by refluxing during 24 hours, after which the remaining HCl solution was evaporated. […] The water was then evaporated, and the residue mixed with 50 ml 10% hydrogen peroxide. The mixture was carefully refluxed until the reaction was completed. The structure of 1,2-diphosphono-o-carborane was verified by ^31 P and ^11 B NMR.

[3] = Oral capsules followed by neutron irradiation in adult with a bone tumor (Example VIII); format: in vivo, adult (human); conditions: oral capsules (350 mg MECB or replacement) twice daily, ten days; 37 eV neutron beam about 24 hrs after last capsule
Description: Capsules are prepared by conventional methods, comprised as follows:
To a 76 kg adult with a bone tumor are administered orally twice daily the above capsules for a period of ten days. About 24 hrs after the last capsule is administered, the tumor site is irradiated with a 37 eV neutron beam of 2.4×10^8 neutrons cm^-2 s^-1.

[4] = Animal skeletal uptake test (99mTc scan); format: in vivo, Rabbits; conditions: 99mTc-labelled solution, 1.0 ml injected; scanned at 3 hrs and 21 hrs
Description: In this test the skeletal uptake of a polyphosphonate compound is established as follows:
A reducing solution is prepared by mixing 5.0 ml of a 0.34 N NTA solution, 1.0 ml of a 0.84 M SnCl2 solution and 3.0 ml H2 O. The pH of the solution is adjusted to 5.6 with 1.0 N NaOH. 100 ul of the reducing solution is added to 1.0 ml of a ^99m TcO4^- solution, containing 19.6 mCi. The reduction of TcO4^- is checked by TLC. 0.9 ml of a 35 mg/ml solution of a boron polyphosphonate is added to the reduced technetiate solution. Rabbits are injected with 1.0 ml each of this solution. The animals are scanned for skeletal uptake at 3 hrs and 21 hrs after injection.

[5] = Oral tablets followed by neutron irradiation in patient with calcified tumor (Example IX); format: in vivo, patient (human)
Description: Tablets are prepared by conventional methods, formulated as follows: […]

O=P(O)(O)C(Cl)(Cl)P(=O)(O)O [Cl2 MDP, dichloromethylene diphosphonate, reference compound]
Lag Time ([1]; Concentration 1 × 10^-6 Mole): 18 min | Lag Time ([1]; Concentration 2 × 10^-6 Mole): 41 min

1,2-dicarbaclosododeca borane (12) [o-carborane]
solubility in water [2]: not soluble in water

1-Methyl, 2-(2,2-ethane diphosphonic acid) o-carborane [MECB]
level of alpha and Li particles generated in the tumor tissue [3]: effective level | Lag Time ([1]; Concentration 1 × 10^-6 Mole): 25 min | Lag Time ([1]; Concentration 2 × 10^-6 Mole): 37 min | capability to retard the formation of calcium phosphate ([1]; compared with Cl2 MDP, Table I): the same as that of Cl2 MDP | skeletal affinity [4]: high skeletal affinity

CC(O)(P(=O)(O)O)P(=O)(O)O [EHDP, Ethane hydroxy diphosphonate, reference compound]
Lag Time ([1]; Concentration 1 × 10^-6 Mole): 82 min

1,2-di(2-chloro-2,2-ethane diphosphonic acid)o-carborane [DC1EDP]
deposition of 10B in the calcified tumor tissue ([5]; oral tablets (25 mg) four times daily): significant amounts | levels of localized alpha particles emitted ([5]; oral tablets four times daily, irradiation by 37 eV neutrons): effective levels
